Laboratory results reported in US20210292306A1, “NOVEL INDOLE DERIVATIVE AND ANTI-CANCER CONPOSITION CONTAINING SAME” (KOREA RESEARCH INSTITUTE OF BIOSCIENCE AND BIOTECHNOLOGY, priority 2016, published 2021).

What was measured:
[1] = tested on: K562/ADR; assay: Anti-proliferative activity in cancer cells showing multiple drug resistance (MTT assay); type: cell-based; details: ratio of IC50 K562/ADR to IC50 K562
Method: (§1) HeLa cells (ATCC, USA), which are a human cervical cancer cell line, were dispensed into a 96-well plate at 2×10^3 cells/well, and the cells were treated with DMSO or the indole derivatives of the present invention, and then allowed to grow for 4 days. And then, MTT (3-(4,5-Dimethylthiazol-2-yl)-2,5-diphenyltetrazolium bromide) reagent was added to the wells at 10 μl/well. After 2 hours, the absorbance was measured at “OD 450” and statistical values were obtained using the plizm6 program. The data represent mean values of the results of two repeated assays (Table 1). Specifically, K562 and MCF7 (Bio Evaluation Center, Korea Research Institute of Bioscience and Biotechnology, Korea), and K562/ADR and MCF7/ADR (Bio Evaluation Center, Korea Research Institute of Bioscience and Biotechnology, Korea), which are multiple drug-resistant cell lines of the above mentioned cell lines, respectively, were cultured on a microtiter plate at 1-3×10^3 cells/well.

[2] = tested on: MCF7/ADR; assay: as above; type: cell-based; details: ratio of IC50 MCF7/ADR to IC50 MCF7
Method: as §1

[3] = tested on: human-derived skin cancer cell line (A431); assay: Anti-cancer effect in human-derived skin cancer cell (A431) implantation nude mouse model; type: in vivo, BALB/C female nude mouse; details: for tumor growth inhibition: day 23; for tumor weight reduction: excised A431 tumors weighed
Method: The human cancer cell line A431 which was kept frozen in liquid nitrogen was thawed and cell culture was conducted. Cells were cultured in a CO2 incubator (Forma, USA) at 37° C. and 5% CO2 for an appropriate period of time. On the last day of culture, all cancer cells were collected and counted and the cell concentration was adjusted to 1×10^7 cells/ml using serum free media. The culture solution thus prepared was injected subcutaneously in the axillary region between the scapula and chest wall in an amount of 0.3 ml per BALB/C female nude mouse (5 weeks old, Nara Biotech) (3×10^6 cells/mouse). […] To examine the toxicity levels of the repeated intraperitoneal administration of WCI-1031 to A431 cancer cell implantation nude mice, general symptoms and weight changes of the animals were observed during the administration period. […] On day 23 after the start of the drug administration, blood was taken from the mice through ophthalmic veins 2 hours after the last administration, and the mice were sacrificed using CO2 gas. Then the mice were photographed and the tumors was isolated and weighed in a chemical balance. After taking photographs, each tumor was divided in half, and the resultant tumors were fixed to liquid nitrogen and formalin, respectively.

Structure (SMILES)	Resistance factor [1]	Resistance factor [2]	tumor growth inhibition ([3]; 5-FU 2 mg/ml at 10 ml/kg, days 0-2, 5-9, 12-16, 19-23, p<0.01) [%]	tumor weight reduction ([3]; 5-FU 2 mg/ml at 10 ml/kg, p<0.05) [%]	tumor growth inhibition ([3]; colchicine 0.07 mg/kg, days 0-23, p<0.05) [%]	tumor weight reduction ([3]; colchicine 0.07 mg/kg, p<0.05) [%]
COc1cccc2c1C(=O)c1c(O)c3c(c(O)c1C2=O)C[C@@](O)(C(=O)CO)C[C@@H]3O[C@H]1C[C@H](N)[C@H](O)[C@H](C)O1 [Doxorubicin, doxorubicin]	767.91	169.57				
O=c1[nH]cc(F)c(=O)[nH]1 [Example 5-FU, 5-FU, reference compound]			20.7	20.8		
CC(=O)O[C@H]1C(=O)[C@@]2(C)[C@H]([C@H](OC(=O)c3ccccc3)[C@]3(O)C[C@H](OC(=O)[C@H](O)[C@@H](NC(=O)c4ccccc4)c4ccccc4)C(C)=C1C3(C)C)[C@]1(OC(C)=O)CO[C@@H]1C[C@@H]2O [Taxol, taxol]	519.6	438.38				
CC[C@]1(O)C[C@@H]2CN(CCc3c([nH]c4ccccc34)[C@@](C(=O)OC)(c3cc4c(cc3OC)N(C)[C@H]3[C@@](O)(C(=O)OC)[C@H](OC(C)=O)[C@]5(CC)C=CCN6CC[C@]43[C@@H]65)C2)C1 [Vinblastine, vinblastine]	15.63	18.17				
COc1cc2c(c(OC)c1OC)-c1ccc(OC)c(=O)cc1[C@@H](NC(C)=O)CC2 [colchicine, reference compound]	22.91	34.15			17.6	17.6
